Results on three compounds are retold here after article PMC12203525, “The insight into the biology of five homologous lectins produced by the entomopathogenic bacterium and nematode symbiont Photorhabdus laumondii” (Glycobiology, 2025).

Read-outs that look alike come from different tables or passages of the source.

For assay [1], the target named is PLL3. On the set-up: method as in Faltinek et al. 2019; Fujdiarová et al. 2021. Conditions: PLL3 binding to the immobilized sugar, SPR; ref Faltinek et al. 2019; Fujdiarová et al. 2021; read-out: KD(app); cited from earlier work.
Assay [2] has as its target PLL2. On the set-up: method as in Faltinek et al. 2019; Fujdiarová et al. 2021. Conditions: PLL2 binding to the immobilized sugar, SPR; ref Faltinek et al. 2019; Fujdiarová et al. 2021; read-out: KD(app); cited from earlier work.
For assay [3], the target named is T1, PLL4 (Photorhabdus laumondii subsp. laumondii, UniProt Q7N8I6). The experiment in a line: SPR, apparent KD on immobilized sugar. The arrangement: species or system Photorhabdus laumondii subsp. laumondii TT01. Conditions: PLL4 binding to the immobilized sugar, 25 °C, read-out: KD(app). The procedure:
(§1) SPR experiments were carried out on BIAcore T200 or BIAcore S200 instruments (GE Healthcare, UK). Sugar moieties were immobilized on the chip surface using the standard procedures according to the manufacturer’s instructions. Measurements with immobilized MGMR were performed on the chip prepared previously (high-density chip) ([Fujdiarová et al. 2021]). Measurements with immobilized α-L-fucose were performed on the streptavidin chip (GE Healthcare, UK). Biotinylated α-L-fucose was immobilized on channel 2 to yield a final response of 29 RU, unmodified channel 1 was used as a control.
(§2) Measurements were performed in Tris buffer with the addition of 0.05% Tween 20 at a flow rate of 30 μl/min at 25 °C. […] 50 mM NaOH for 30 s (flow 30 μl/min) was used for chip regeneration. To determine KDs (app) towards MGMR, 2-fold dilution series of lectins was used (PLL: 0.048 – 50 μM, PLL4: 0.008 - 2 μM; PLL5: 1.9 – 500 nM). The data were evaluated with the BIAcore T200 or BIAcore S200 evaluation software using a steady state approach. To determine KD(app) towards α-L-fucose, 2-fold dilution series of lectins was used (PLL: 1.25 – 20 μM, PLL4: 0.39 – 12.5 μM; PLL5: 0.12 – 30 μM). The data were evaluated with the BIAcore T200 or BIAcore S200 evaluation software using a steady state approach (PLL5) or a single-cycle kinetics approach (PLL, PLL4). For SPR inhibition experiments on the MGMR channel, 250 nM PLL, 250 nM PLL4 or 62 nM PLL5, respectively, was used. Proteins of the given concentration were mixed with a concentration series of tested inhibitors (0.01 - 0.4 M). Proteins without an inhibitor were used as a control. The response of the lectin bound to the sugar surface at equilibrium was plotted against the concentration of inhibitor in order to determine IC50. The response in the appropriate blank channel was subtracted prior to all evaluations.
For orientation: In SPR one partner is held on a chip, and binding of the other changes the refractive index at the surface.

Assay [4] has as its target T2, PLL5 (Photorhabdus laumondii subsp. laumondii, UniProt Q7N8I5). The experiment in a line: SPR, apparent KD on immobilized sugar. On the set-up: species or system Photorhabdus laumondii subsp. laumondii TT01. Conditions: PLL5 binding to the immobilized sugar, 25 °C, read-out: KD(app). The protocol:
as §1, §2

The target in assay [5] is T3, PLL (Photorhabdus laumondii subsp. laumondii, UniProt Q7N8J0). The experiment in a line: SPR, apparent KD on immobilized sugar. The arrangement: species or system Photorhabdus laumondii subsp. laumondii TT01. Conditions: PLL binding to the immobilized sugar, 25 °C, read-out: KD(app). The procedure: as §1, §2
T3 sequence (Q7N8J0 entry or part of it): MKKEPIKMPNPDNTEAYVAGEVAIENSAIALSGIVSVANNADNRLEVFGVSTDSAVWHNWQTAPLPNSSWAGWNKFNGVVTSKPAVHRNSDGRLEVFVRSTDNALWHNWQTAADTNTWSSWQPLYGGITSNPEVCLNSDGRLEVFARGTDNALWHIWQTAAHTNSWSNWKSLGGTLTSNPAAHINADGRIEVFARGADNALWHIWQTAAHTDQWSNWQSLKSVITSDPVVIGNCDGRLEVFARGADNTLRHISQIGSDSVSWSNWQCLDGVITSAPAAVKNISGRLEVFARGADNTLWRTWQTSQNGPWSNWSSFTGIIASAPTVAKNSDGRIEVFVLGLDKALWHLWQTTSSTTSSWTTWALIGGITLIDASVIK
Assay [6] deals with T1, PLL4. The experiment in a line: SPR inhibition assay on the MGMR channel. On the set-up: species or system Photorhabdus laumondii subsp. laumondii TT01. Conditions: inhibition of PLL4 (250 nM) binding to immobilized MGMR. The procedure: as §1, §2
The target in assay [7] is T2, PLL5. The experiment in a line: SPR inhibition assay on the MGMR channel. Conditions: inhibition of PLL5 (62 nM) binding to immobilized MGMR. On the set-up: species or system Photorhabdus laumondii subsp. laumondii TT01. The protocol: as §1, §2
Assay [8] deals with T3, PLL. The experiment in a line: SPR inhibition assay on the MGMR channel. Conditions: inhibition of PLL (250 nM) binding to immobilized MGMR. The arrangement: species or system Photorhabdus laumondii subsp. laumondii TT01. The procedure:
as §1, §2

Assay [9] deals with PLL2. On the set-up: method as in Faltinek et al. 2019; Fujdiarová et al. 2021. Conditions: inhibition of PLL2 binding to immobilized MGMR; ref Faltinek et al. 2019; Fujdiarová et al. 2021; read-out: IC50; cited from earlier work.
Assay [10] concerns the target T1, PLL4. The experiment in a line: Isothermal titration calorimetry (ITC). It counts as binding, Photorhabdus laumondii subsp. laumondii TT01. Conditions: for KD: ITC. The protocol: (§3) ITC experiments were performed using an Auto-ITC200 calorimeter or Automated PEAQ-ITC calorimeter (both Malvern Panalytical, Malvern, UK). Measurements were carried out at 25 °C in the Tris buffer. Before the analyses, lectins were extensively dialyzed against the Tris buffer and the dialysate was used to dissolve ligands. The protein (0.1 mM or 0.2 mM) in the cell was titrated with 2 μL injections of the ligand (20 mM or 40 mM). […] Experiments for each interacting ligand were carried out in triplicates. Integrated heat effects were evaluated by nonlinear regression using a single-site binding model in Origin 7 (OriginLab, Northampton, USA) ([Wiseman et al. 1989]). Triplicate measurements were fitted simultaneously using a global fit approach. Due to the low affinity of the interaction, the binding stoichiometry was fixed during the fitting.

Assay [11] deals with T2, PLL5. The experiment in a line: Isothermal titration calorimetry (ITC). Conditions: for KD: ITC. In kind it is binding, Photorhabdus laumondii subsp. laumondii TT01. The protocol:
as §3
Background: ITC needs no label: the signal is the heat of the interaction.

The target of assay [12] is T3, PLL. The experiment in a line: Isothermal titration calorimetry (ITC). It counts as binding, Photorhabdus laumondii subsp. laumondii TT01. Conditions: for KD: ITC. The protocol:
as §3

For assay [13], the target named is PLL3. On the set-up: method as in Fujdiarová et al, 2021, Faltinek et al, 2019. Conditions: ref Fujdiarová et al, 2021, Faltinek et al, 2019, cited from earlier work; for Kd: ITC.
The test system of assay [14] is PLL3. On the set-up: method as in Faltinek et al. 2019; Fujdiarová et al. 2021. Conditions: inhibition of PLL3 binding to immobilized MGMR; ref Faltinek et al. 2019; Fujdiarová et al. 2021; read-out: IC50; cited from earlier work.
For assay [15], the target named is PLL2. On the set-up: method as in Fujdiarová et al, 2021, Faltinek et al, 2019. Conditions: ref Fujdiarová et al, 2021, Faltinek et al, 2019, cited from earlier work.
Assay [16] has as its target T1, PLL4. The experiment in a line: Glycan microarray screening (634 saccharide ligands). It counts as binding, Photorhabdus laumondii subsp. laumondii TT01. Conditions: DyLight488-labelled PLL4, 200 μg/mL. The procedure: Lectins were fluorescently labelled with DyLight 488 according to the manufacturer’s instructions and the unbound dye was extensively dialyzed out of the protein solution. The microarray chip (Semiotik LLC, Moscow, Russia, batch OSPS280715) containing 634 saccharide ligands, each in 6 replicates, was treated with PBS (137 mM NaCl, 2.7 mM KCl, 8 mM Na2HPO4, […], pH 7.4) with added 0.1% Tween-20 for 15 min. The labelled proteins (200 μg/mL) were then separately applied to the chip surface and incubated in a humidity chamber at 37 °C for 1 h. After the incubation, the unbound protein was washed out with PBS containing 0.05% Tween-20 and deionized water. The chip was dried by airflow and scanned using an InnoScan1100 AL (Innopsys, Carbonne, France) with a 488 nm laser. The data were analyzed with the software Mapix 8.2.2 and an online glycan chip converter (Semiotic, https://rakitko.shinyapps.io/semiotik).

For orientation: IC50 means the midpoint of a concentration-inhibition curve.

T1 sequence (Q7N8I6 entry or part of it): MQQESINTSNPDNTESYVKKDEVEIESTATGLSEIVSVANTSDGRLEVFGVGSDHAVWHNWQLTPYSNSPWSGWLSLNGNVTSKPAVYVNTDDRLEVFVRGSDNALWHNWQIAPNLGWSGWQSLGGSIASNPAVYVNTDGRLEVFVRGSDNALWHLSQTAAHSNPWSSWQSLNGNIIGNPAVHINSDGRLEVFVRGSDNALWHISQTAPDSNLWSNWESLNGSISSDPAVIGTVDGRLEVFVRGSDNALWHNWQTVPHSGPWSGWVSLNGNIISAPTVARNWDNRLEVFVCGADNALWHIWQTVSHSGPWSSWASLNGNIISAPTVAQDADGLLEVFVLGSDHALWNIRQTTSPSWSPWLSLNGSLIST
T2 sequence (Q7N8I5 entry or part of it): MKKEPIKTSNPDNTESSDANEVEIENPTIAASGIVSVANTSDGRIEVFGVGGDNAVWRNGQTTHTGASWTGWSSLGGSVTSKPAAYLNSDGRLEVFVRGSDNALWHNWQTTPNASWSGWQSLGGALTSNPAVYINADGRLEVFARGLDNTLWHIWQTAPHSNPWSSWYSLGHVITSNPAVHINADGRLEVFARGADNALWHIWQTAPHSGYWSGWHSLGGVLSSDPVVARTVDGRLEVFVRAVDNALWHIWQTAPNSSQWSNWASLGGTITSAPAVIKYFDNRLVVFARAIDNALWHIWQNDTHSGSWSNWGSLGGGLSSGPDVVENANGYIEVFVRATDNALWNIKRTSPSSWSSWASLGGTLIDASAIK

For `COC[C@H]1O[C@@H](O[C@@H]2[C@@H](OC)[C@@H](OC)[C@H](O)O[C@H]2C)[C@H](O)[C@@H](OC)[C@@H]1O` [MGMR, 3,6-O-Me2-D-Glcβ1-4(2,3-O-Me2)-L-Rhaα], the Kd was 607 ± 46 µM on PLL3 [1]; 0.0061 ± 0.0002 µM at PLL2 [2]; 0.8 ± 0.06 µM on PLL4 [3]; 0.3 ± 0.03 µM at PLL5 [4]; 44 ± 4.6 µM at PLL [5].

`CO[C@@H]([C@H](O)[C@H](O)CO)[C@@H](O)C=O` [3OMG, 3-O-methyl-D-glucose]: the IC50 is 13100 ± 840 µM on PLL4 [6]; 16900 ± 2690 µM at PLL5 [7]; 48100 ± 14900 µM at PLL [8]; 5200 ± 910 µM in the assay on PLL2 [9]; 26400 ± 2840 µM in the assay on PLL3 [14]. Also, the KD entry on PLL4 [10] (PLL4, stoichiometry N fixed to 2) is recorded as “No int”; at PLL4 [10] (PLL4, stoichiometry N fixed to 4), “No int”; at PLL4 [10] (PLL4, stoichiometry N fixed to 6), “No int”; at PLL4 [10] (PLL4, stoichiometry N fixed to 8), “No int”; at PLL5 [11] (PLL5, stoichiometry N fixed to 2), “No int”; at PLL5 [11] (PLL5, stoichiometry N fixed to 4), “No int”. Moreover, the KD result on PLL5 [11] (PLL5, stoichiometry N fixed to 6) is listed as “No int”; on PLL5 [11] (PLL5, stoichiometry N fixed to 8) it was “No int”; on PLL [12] (stoichiometry N fixed to 2) it was “No int”; at PLL [12] (stoichiometry N fixed to 4), “No int”; on PLL [12] (stoichiometry N fixed to 6) it was “No int”; on PLL [12] (stoichiometry N fixed to 8) it was “No int”. Also, the “interaction with the sugar in ITC (in words)” value on PLL4 [10] (PLL4) was “did not bind these sugars significantly”; at PLL5 [11] (PLL5), “did not bind these sugars significantly”; at PLL [12], “did not bind these sugars significantly”; in the assay with PLL3 [13] (PLL3), “interacted”; in the assay on PLL2 [15] (PLL2) it was “interacted”. Besides, the Kd is 11500 ± 1550 µM on PLL3 [13] (PLL3, stoichiometry N fixed to 2); 11100 ± 1500 µM on PLL3 [13] (PLL3, stoichiometry N fixed to 4); 10700 ± 1500 µM on PLL3 [13] (PLL3, stoichiometry N fixed to 6); 10200 ± 620 µM on PLL3 [13] (PLL3, stoichiometry N fixed to 8); 11200 ± 800 µM at PLL2 [15] (ITC, PLL2, stoichiometry N fixed to 8).

As for α-L-fucoside, the Kd was 322 ± 86 µM at PLL3 [1]; 117 ± 4.8 µM on PLL2 [2]; 4.3 ± 0.1 µM on PLL4 [3]; 64 ± 8.6 µM at PLL5 [4]; 8.5 ± 0.2 µM at PLL [5]. Moreover, on PLL4 [16], the “glycan array binding (in words)” value is recorded as “recognized”.
